Consider four compounds from patent US10371695B2, “Identifying compounds modifying a cellular phenotype” (2cureX ApS, priority 2014, dated 2019).

Assay [1] concerns micro-tumors (spheroids) from patient tumor tissue. Kind of assay: Screening of compounds imbedded in thermo sensitive nano-particles distributed in Matrigel on patient micro-tumors. The assay is classed as cell-based, human. The settings on record: FIG. 4; images at day 0, 3, 5 and 7; compound released from nano-particles at 42° C. On the procedure: Materials and Solutions: • Nano-particles containing chemo therapeutic compounds • Support: Matrigel® available from BD Biosciences, • Arrays: Micro slide format array with 96 individual wells surrounded by a common reservoir as described in Example 1 • Cooling device for keeping 5° C.
Nano-particles, Matrigel® and arrays were kept at 5° C. (cooling block) throughout the process when not in the freezer. • 1. Compound containing nano-particles were diluted in Matrigel® (fluid). • 2. Matrigel containing the nano-particles (from above point 1) were added to individual wells of the array • 3. The arrays were centrifuged 10 min at 3000 RPM (cold) • 4. The arrays were stored at −18° C. for 24 hrs. (solid)
Materials and Solutions: • Array prepared accordingly to Example 2 • STEM media: DMEM/F12 w. 15% Hepes (Gibco 11330-032), StemPro hESC SFM growth supplement (50×):1× • BSA 25%, Gibco A10008-01: 1.8%, FGF-basic (10 ug/ml): 8 ng/ml, 2-Mercaptoethanol Gibco 21985 (55 mM): 0.1 mM, Penicillin/streptomycin 200 U/ml/200 ug/ml (=2× usual conc.), Gentamycin Sigma G1272: 1:100 (=2× usual conc.), Amphotericin (fungicide): 1:100 (=1× usual conc.), Hepes 15 mM • Incubator, 37° C. […]
Procedure: • 1. […] Images were acquired every day for 10 days and micro-tumor growth (and inhibition of growth) was measured by quantifying the area of the micro-tumors.

Assay [2] shares this test system. Kind of assay: Chemo-sensitivity screening of compounds distributed in Matrigel on patient micro-tumors (growth by imaged area). The settings on record: for cancer cell proliferation (spheroid/micro-tumour growth) inhibition: increasing concentrations, inhibited = spheroid grown to less than 1.5x original size after 7 days at least at highest concentrations tested. The assay is classed as cell-based, human. Here is the method: Materials and Solutions: • Support: Matrigel® available from BD Biosciences. • Arrays: Micro slide format arrays with 96 individual wells surrounded by a common reservoir.
Compounds, Matrigel® and arrays are kept at 5° C. (cooling device) throughout the process when not in the freezer. • 1. Compounds were diluted in Matrigel® (Fluid) as single compounds and/or in combinations equal to standard treatment regimens of patients with colorectal cancer. • 2. Matrigel® with compounds were added to individual wells of the arrays (Fluid) • 3. Arrays were centrifuged 10 min at 3000 RPM (cold) • 4. Arrays were stored at −18° C. (Solid)—ready for use
Materials and Solutions: • Array prepared as described in Example 1 • STEM media: DMEM/F12 w. 15% Hepes (Gibco 11330-032), StemPro hESC SFM growth supplement (50×):1× • BSA 25%, Gibco A10008-01: 1.8%, FGF-basic (10 ug/ml): 8 ng/ml, 2-Mercaptoethanol Gibco 21985 (55 mM): 0.1 mM, Penicillin/streptomycin 200 U/ml/200 ug/ml (=2× usual conc.), Gentamycin Sigma G1272: 1:100 (=2× usual conc.), Amphotericin (fungicide): 1:100 (=1× usual conc.), Hepes 15 mM • Cooling device for keeping 5° C. • Incubator, 37° C. (CO2, 99% humidity for cell culture)
Procedure: • 1. Tumor tissue from patient was prepared to form a population of small individual micro-tumors (spheroids) • 2. Micro-tumors were suspended in cold STEM media • 3. The array was taken directly from freezer and placed on the cooling device (solid) • 4. 3 ml micro tumor suspension was added to the reservoir of the array and the array was left for 7 min. to allow cells to distribute and settle into individual wells of the array • 5. STEM media was gently removed from reservoir—leaving the micro tumors in the wells • 6. The array was moved to refrigerator (5° C.) and left for 30 min to allow Matrigel® to liquefy and the cells to settle at the bottom of the array (fluid) • 7. Hereafter the array was incubated at 37° C. for 1 hr. to allow the Matrigel® to solidify and entrap the cells in a certain position (solid) • 8. The array with micro-tumors positioned at the bottom was imaged at an automated microscope • 9. Images were acquired every day for 10 days and micro-tumor growth (and inhibition of growth) was measured by quantifying the area of the micro-tumors.
In general cancer cell proliferation as evidenced by spheroid (micro-tumour) growth was considered inhibited if the spheroid had grown to less than 1.5× the original size after 7 days of incubation at least at the highest concentrations tested.

On to `CCc1c2c(nc3ccc(OC(=O)N4CCC(N5CCCCC5)CC4)cc13)-c1cc3c(c(=O)n1C2)COC(=O)[C@]3(O)CC` [Irinotecan], for which, in assay [1], the “micro-tumour growth, proliferation of cancer cells” value is on record as “inhibits proliferation”. Besides, the “time trace of micro-tumour (spheroid) growth, cancer cell proliferation” value in assay [2] (FIG. 3, presence or absence of compound) is listed as “clearly inhibited cancer cell proliferation”.

Consider `O=c1[nH]cc(F)c(=O)[nH]1` [5FU], for which the “cancer cell proliferation (spheroid/micro-tumour growth) inhibition” value in assay [2] (patient 1, FIG. 2a) was “inhibited”; in assay [2] (patient 2, FIG. 2a), “inhibited”.

As for `CCc1c2c(nc3ccc(O)cc13)-c1cc3c(c(=O)n1C2)COC(=O)[C@]3(O)CC` [SN38], the “cancer cell proliferation (spheroid/micro-tumour growth) inhibition” value in assay [2] (patient 1, FIG. 2a) is reported as “inhibited”; in assay [2] (patient 2, FIG. 2a) it was “inhibited”.

Consider `O=C1[O][Pt]2([NH][C@@H]3CCCC[C@H]3[NH]2)[O]C1=O` [Oxaliplatin], for which the “cancer cell proliferation (spheroid/micro-tumour growth) inhibition” value in assay [2] (patient 2, FIG. 2a) is “inhibited”.
